Measured values taken from patent publication US8859571B2, “Quinazoline compounds” (GlaxoSmithKline LLC, priority 2009, dated 2014).
Structures can show the parent of a compound that is named as a salt.

Biological target: T1, Full length human TNNI3K (hTNNI3K) (Homo sapiens, UniProt Q59H18)
T1 construct: His-MBP-TEV-Full length human TNNI3K (hTNNI3K); His (N); MBP (N); TEV cleavage site (N); made in house; host or cells: baculovirus system (printed 'Baculokinase system')
T1 sequence (Q59H18 1-835): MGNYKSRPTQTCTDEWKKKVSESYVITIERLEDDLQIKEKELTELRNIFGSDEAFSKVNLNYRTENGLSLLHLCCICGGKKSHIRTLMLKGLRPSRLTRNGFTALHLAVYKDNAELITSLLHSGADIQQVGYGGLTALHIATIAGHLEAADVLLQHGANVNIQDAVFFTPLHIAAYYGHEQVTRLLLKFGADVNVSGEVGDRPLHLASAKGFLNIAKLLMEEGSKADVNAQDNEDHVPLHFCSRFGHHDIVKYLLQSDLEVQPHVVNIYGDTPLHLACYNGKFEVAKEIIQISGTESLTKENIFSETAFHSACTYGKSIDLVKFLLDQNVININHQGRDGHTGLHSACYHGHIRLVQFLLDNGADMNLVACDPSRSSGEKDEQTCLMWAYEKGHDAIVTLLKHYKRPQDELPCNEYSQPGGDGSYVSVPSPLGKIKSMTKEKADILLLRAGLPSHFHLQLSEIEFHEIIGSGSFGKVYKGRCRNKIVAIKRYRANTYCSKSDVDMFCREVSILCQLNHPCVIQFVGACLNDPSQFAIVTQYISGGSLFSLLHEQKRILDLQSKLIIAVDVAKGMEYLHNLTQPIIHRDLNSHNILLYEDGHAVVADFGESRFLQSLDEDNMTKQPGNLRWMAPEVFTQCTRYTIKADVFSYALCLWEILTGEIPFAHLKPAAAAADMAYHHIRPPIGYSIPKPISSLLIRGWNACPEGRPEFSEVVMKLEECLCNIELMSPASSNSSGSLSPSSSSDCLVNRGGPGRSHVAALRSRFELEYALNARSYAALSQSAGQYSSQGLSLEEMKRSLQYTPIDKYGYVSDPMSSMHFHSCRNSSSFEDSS
Experiment: Fluorescent polarization assay of compound inhibition on hTNNI3K ATP binding (Biological Assay Method I)
Conditions: displacement of fluorescent ligand from hTNNI3K ATP binding pocket; mean of a minimum of 2 experiments; read-out: pXC50 (the source's name) (converted)

First: CNS(=O)(=O)c1ccc(OCC(F)(F)F)c(Nc2ncnc3cc(OCCCOC)ccc23)c1 [Example 75, N-methyl-3-[(7-{[3-(methyloxy)propyl]oxy}-4-quinazolinyl)amino]-4-[(2,2,2-trifluoroethyl)oxy]benzenesulfonamide]
Second: CNS(=O)(=O)c1ccc(N(C)C)c(Nc2ncnc3cc(OCCCOC)ccc23)c1 [Example 76, 4-(dimethylamino)-N-methyl-3-[(7-{[3-(methyloxy)propyl]oxy}-4-quinazolinyl)amino] benzenesulfonamide]
The IC50 of the first is higher: 0.01 to 0.1 µM for the first, 0.001 to 0.01 µM for the second.

`CNS(=O)(=O)c1ccc(S(C)(=O)=O)c(Nc2ncnc3cc(OC)cc(OC)c23)c1` [Example 77, 3-{[5,7-bis(methyloxy)-4-quinazolinyl]amino}-N-methyl-4-(methylsulfonyl)benzenesulfonamide trifluoroacetate] and `CCOc1cc2ncnc(Nc3cc(S(=O)(=O)NC)ccc3OCC(F)(F)F)c2cc1OC` [Example 80, 3-(7-ethoxy-6-methoxy-quinazolin-4-ylamino)-N-methyl-4-(2,2,2-trifluoro-ethoxy)-benzenesulfonamide trifluoroacetate] fall in the same range of IC50: 0.01 to 0.1 µM for the first, 0.01 to 0.1 µM for the second.

`CNS(=O)(=O)c1ccc(OCC(F)(F)F)c(Nc2ncnc3cc(OCCOC)c(OC)cc23)c1` [Example 81, 3-[6-methoxy-7-(2-methoxy-ethoxy)-quinazolin-4-ylamino]-N-methyl-4-(2,2,2-trifluoro-ethoxy)-benzenesulfonamide trifluoroacetate] and `CNS(=O)(=O)c1ccc(N(C)C)c(Nc2ncnc3ccc(N)cc23)c1` [Example 84, 3-((6-aminoquinazolin-4-yl)amino)-4-(dimethylamino)-N-methylbenzenesulfonamide] fall in the same range of IC50: 0.01 to 0.1 µM for the first, 0.01 to 0.1 µM for the second.

`CNS(=O)(=O)c1ccc(N(C)C)c(Nc2ncnc3cc(N)ccc23)c1` [Example 85, 3-((7-aminoquinazolin-4-yl)amino)-4-(dimethylamino)-N-methylbenzenesulfonamide] and `CNc1ccc2c(Nc3cc(S(=O)(=O)NC)ccc3N(C)C)ncnc2c1` [Example 88, 4-(dimethylamino)-N-methyl-3-((7-(methylamino)quinazolin-4-yl)amino) benzenesulfonamide] fall in the same range of IC50: 0.01 to 0.1 µM for the first, 0.01 to 0.1 µM for the second.

`CNS(=O)(=O)c1ccc(N(C)C)c(Nc2ncnc3ccc(N(C)C)cc23)c1` [Example 86, 4-(dimethylamino)-3-((6-(dimethylamino)quinazolin-4-yl)amino)-N-methylbenzenesulfonamide bis(trifluoroacetate)] and `CNc1ccc2ncnc(Nc3cc(S(=O)(=O)NC)ccc3N(C)C)c2c1` [Example 87, 4-(dimethylamino)-N-methyl-3-((6-(methylamino)quinazolin-4-yl)amino)benzenesulfonamide bis(trifluoroacetate)] fall in the same range of IC50: 0.01 to 0.1 µM for the first, 0.01 to 0.1 µM for the second.
